Experimental data: paper PMC8524670 (Pharmacology Research & Perspectives, 2021)

Tests used:
CYP1A2 = target: T1, CYP1A2 (Homo sapiens, UniProt P05177); assay: biochemical; assay type: in vitro ADME
T1 sequence (P05177 1-516): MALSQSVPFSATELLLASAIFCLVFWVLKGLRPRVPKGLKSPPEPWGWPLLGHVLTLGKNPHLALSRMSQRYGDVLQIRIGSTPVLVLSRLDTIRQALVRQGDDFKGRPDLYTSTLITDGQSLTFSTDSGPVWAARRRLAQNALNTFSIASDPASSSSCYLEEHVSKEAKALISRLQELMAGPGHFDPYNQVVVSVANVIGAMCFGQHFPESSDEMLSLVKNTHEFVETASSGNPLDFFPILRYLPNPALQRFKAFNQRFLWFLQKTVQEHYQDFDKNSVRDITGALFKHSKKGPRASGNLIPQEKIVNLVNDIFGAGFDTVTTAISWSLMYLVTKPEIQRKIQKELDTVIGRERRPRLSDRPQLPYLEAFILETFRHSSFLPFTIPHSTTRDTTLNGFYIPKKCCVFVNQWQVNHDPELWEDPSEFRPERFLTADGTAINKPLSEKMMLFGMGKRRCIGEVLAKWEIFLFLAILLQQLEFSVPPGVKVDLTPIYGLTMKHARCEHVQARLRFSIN

CYP2B6 = assay: CYP induction in human hepatocytes; assay type: in vitro ADME
P-gp [1] = target: T2, P-gp (Homo sapiens, UniProt P08183); assay: P-gp transportation in MDCK-MDR1 cells; assay type: in vitro ADME
P-gp [2] = target: T2, P-gp; assay: P-gp inhibition in Caco-2 cells; assay type: in vitro ADME; conditions: up to 10 μM
OATP1B1 = target: T3, OATP1B1 (Homo sapiens, UniProt Q9Y6L6); assay: SLC inhibition assay in HEK293 cells; assay type: in vitro ADME; conditions: 0.05–5 µM
T3 sequence (Q9Y6L6 1-691): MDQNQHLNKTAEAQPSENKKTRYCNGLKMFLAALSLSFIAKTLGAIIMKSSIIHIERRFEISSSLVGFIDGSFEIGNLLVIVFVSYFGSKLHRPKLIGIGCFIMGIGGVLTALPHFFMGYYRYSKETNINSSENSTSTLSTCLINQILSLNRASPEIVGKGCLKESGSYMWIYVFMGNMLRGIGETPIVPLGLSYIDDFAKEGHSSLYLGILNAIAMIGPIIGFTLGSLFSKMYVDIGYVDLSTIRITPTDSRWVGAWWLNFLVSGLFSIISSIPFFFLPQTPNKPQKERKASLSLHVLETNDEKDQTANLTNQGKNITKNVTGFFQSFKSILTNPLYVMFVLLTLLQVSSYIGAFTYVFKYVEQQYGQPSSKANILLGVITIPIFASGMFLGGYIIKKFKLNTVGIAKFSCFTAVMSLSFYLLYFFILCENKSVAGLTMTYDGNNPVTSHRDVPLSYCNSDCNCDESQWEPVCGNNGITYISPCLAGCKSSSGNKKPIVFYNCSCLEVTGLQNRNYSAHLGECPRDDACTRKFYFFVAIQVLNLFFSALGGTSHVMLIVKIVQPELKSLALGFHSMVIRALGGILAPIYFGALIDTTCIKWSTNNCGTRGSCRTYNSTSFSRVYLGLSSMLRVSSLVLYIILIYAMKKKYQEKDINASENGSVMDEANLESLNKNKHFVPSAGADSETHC

[3] = Clinical pharmacokinetic parameters of zanubrutinib; assay type: in vivo, human
[4] = cited from earlier work
[5] = estimated from PBPK modeling; cited from earlier work
CYP2C19 [6] = target: T4, CYP2C19 (Homo sapiens, UniProt P33261); assay: CYP reversible inhibition in HLMs; conditions: S-mephenytoin
CYP3A = CYP3A (Homo sapiens, UniProt P08684); assay: CYP reversible inhibition in HLMs; conditions: for R1: DDI basic model, hepatic; for R1 , gut: intestinal CYP3A, basic model; for Ag / Ah: static model term; for Ag: gut inhibition; for Ah: liver inhibition
CYP2C8 = target: T5, CYP2C8 (Homo sapiens, UniProt P10632); assay: Time-dependent CYP inhibition in HLMs; conditions: 10 µM zanubrutinib, 30 min pre-incubation with HLMs and NADPH
T5 sequence (P10632 1-490): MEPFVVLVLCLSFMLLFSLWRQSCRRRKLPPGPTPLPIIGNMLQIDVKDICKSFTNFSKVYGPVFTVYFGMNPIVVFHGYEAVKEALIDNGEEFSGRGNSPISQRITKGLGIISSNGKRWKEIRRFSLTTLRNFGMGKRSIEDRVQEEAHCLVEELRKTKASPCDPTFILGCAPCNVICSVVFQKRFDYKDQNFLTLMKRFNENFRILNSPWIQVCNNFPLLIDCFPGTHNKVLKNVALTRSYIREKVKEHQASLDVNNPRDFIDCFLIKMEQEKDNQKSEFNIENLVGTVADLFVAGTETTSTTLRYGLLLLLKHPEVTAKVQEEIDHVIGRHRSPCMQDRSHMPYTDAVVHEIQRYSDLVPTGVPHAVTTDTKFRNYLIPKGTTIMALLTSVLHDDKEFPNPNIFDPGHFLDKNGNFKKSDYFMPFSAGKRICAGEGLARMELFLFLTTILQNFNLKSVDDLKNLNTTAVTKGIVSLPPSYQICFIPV

CYP2C9 = CYP2C9 (Homo sapiens, UniProt P11712); assay: Time-dependent CYP inhibition in HLMs; conditions: 10 µM zanubrutinib, 30 min pre-incubation with HLMs and NADPH
CYP2C19 [7] = target: T4, CYP2C19; assay: Time-dependent CYP inhibition in HLMs; conditions: 10 µM zanubrutinib, 30 min pre-incubation with HLMs and NADPH
[8] = CYP phenotyping in HLMs with chemical inhibitors; conditions: 1 μM

T2 sequence (P08183 whole entry): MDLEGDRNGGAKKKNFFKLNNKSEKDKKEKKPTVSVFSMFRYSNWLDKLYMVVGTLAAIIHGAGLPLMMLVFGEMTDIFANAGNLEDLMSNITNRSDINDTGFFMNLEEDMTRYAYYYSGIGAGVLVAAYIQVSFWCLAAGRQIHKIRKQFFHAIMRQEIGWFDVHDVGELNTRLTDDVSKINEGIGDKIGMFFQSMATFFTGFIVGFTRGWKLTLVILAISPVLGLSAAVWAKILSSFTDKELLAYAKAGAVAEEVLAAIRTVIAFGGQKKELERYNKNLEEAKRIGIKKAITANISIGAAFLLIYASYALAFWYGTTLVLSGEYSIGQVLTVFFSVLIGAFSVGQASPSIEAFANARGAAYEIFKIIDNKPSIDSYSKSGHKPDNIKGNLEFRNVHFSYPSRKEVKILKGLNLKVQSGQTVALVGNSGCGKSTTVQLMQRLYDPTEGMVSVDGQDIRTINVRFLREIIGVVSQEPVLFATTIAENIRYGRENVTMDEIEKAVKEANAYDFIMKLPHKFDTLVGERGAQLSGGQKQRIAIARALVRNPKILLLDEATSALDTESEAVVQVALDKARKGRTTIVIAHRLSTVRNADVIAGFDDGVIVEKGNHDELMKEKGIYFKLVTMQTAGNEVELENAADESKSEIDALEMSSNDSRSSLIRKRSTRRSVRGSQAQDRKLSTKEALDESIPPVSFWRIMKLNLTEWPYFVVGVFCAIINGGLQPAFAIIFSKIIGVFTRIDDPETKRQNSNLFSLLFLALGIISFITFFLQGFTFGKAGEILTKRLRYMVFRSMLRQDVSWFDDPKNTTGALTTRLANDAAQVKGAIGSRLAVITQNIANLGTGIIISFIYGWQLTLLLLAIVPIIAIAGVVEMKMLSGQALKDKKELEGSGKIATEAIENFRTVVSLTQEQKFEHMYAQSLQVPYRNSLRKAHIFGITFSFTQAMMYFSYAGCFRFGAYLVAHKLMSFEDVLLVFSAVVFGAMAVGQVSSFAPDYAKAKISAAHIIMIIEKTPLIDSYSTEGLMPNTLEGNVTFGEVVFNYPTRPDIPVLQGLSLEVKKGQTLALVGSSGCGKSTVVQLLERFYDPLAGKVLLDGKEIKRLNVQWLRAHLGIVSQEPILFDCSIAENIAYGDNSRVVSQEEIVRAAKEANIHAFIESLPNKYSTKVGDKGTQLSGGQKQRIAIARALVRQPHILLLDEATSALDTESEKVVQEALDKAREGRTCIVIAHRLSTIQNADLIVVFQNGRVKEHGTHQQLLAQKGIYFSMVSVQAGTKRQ
T4 sequence (P33261 whole entry): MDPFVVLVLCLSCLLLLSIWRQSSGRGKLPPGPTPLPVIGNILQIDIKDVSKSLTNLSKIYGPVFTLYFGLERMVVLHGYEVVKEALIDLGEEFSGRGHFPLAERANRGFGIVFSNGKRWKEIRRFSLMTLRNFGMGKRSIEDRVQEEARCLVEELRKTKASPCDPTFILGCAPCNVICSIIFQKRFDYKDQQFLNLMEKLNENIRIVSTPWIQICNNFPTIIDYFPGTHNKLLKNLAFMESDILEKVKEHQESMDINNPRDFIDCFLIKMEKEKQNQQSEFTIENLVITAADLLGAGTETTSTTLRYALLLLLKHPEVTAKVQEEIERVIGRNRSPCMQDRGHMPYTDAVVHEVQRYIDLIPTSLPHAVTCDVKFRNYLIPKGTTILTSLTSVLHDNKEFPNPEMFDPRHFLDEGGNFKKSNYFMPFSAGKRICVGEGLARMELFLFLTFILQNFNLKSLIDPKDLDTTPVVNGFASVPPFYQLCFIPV
Sequence of CYP3A (P08684 2-503): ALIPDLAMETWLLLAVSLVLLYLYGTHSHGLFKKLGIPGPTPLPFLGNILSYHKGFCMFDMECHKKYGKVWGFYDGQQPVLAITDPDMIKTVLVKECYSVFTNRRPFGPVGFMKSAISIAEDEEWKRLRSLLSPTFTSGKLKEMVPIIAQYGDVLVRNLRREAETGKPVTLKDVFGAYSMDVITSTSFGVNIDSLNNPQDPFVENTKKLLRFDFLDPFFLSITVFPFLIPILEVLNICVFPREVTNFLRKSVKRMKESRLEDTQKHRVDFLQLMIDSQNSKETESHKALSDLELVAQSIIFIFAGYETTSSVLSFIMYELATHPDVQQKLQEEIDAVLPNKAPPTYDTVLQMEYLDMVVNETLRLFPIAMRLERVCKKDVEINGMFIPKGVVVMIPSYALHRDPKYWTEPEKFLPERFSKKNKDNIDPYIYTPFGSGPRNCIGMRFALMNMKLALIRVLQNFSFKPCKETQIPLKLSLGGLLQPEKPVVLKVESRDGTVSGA
Sequence of CYP2C9 (P11712 whole entry): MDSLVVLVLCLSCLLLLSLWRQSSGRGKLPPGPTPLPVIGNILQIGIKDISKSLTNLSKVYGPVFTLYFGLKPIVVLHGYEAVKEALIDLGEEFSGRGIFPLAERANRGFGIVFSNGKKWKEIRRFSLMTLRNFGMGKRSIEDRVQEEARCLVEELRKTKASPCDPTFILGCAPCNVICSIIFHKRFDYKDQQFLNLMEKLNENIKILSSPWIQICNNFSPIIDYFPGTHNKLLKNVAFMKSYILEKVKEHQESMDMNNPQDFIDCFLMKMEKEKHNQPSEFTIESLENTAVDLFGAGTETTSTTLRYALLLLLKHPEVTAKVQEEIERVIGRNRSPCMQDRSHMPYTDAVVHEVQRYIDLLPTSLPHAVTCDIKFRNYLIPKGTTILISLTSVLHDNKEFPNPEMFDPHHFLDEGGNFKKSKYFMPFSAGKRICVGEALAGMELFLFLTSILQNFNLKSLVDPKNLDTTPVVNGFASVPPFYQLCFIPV

Question: For `C=CC(=O)N1CCC([C@@H]2CCNc3c(C(N)=O)c(-c4ccc(Oc5ccccc5)cc4)nn32)CC1` [zanubrutinib], which IC50 (CYP1A2) is on record?
Answer: 121 µM

Question: What about the Ki (CYP1A2; Ki, phenacetin, Ki = IC50/2) of the same compound?
Answer: 60.5 µM

Question: What about the Ki (CYP1A2; Kiu, phenacetin, unbound Ki) of the same compound?
Answer: 47.8 µM

Question: What about the R1 (CYP1A2; phenacetin, DDI basic model, hepatic) of the same compound?
Answer: 1.00

Question: And the Ah (CYP1A2; phenacetin, static model term, liver inhibition)?
Answer: 1.00

Question: And the “R 3” value (CYP2B6; DDI basic model value for induction)?
Answer: 0.55

Question: And the EC50 at 2 days (CYP2B6; human, cryopreserved human hepatocytes)?
Answer: 0.73 µM

Question: What about the Ch (CYP2B6; static model term, induction in liver) of the same compound?
Answer: 1.23

Question: And the Papp A→B at 90 min, 1 µM (P-gp [1]; dog, MDCK-MDR1)?
Answer: 9.16 ± 0.1 ×10⁻⁶ cm/s

Question: What about the Papp A→B at 90 min, 10 µM (P-gp [1]; dog, MDCK-MDR1) of the same compound?
Answer: 21.9 ± 0.049 ×10⁻⁶ cm/s

Question: And the Papp B→A at 90 min, 1 µM (P-gp [1]; dog, MDCK-MDR1)?
Answer: 31.7 ± 0.12 ×10⁻⁶ cm/s

Question: And the Papp B→A at 90 min, 10 µM (P-gp [1]; dog, MDCK-MDR1)?
Answer: 47.9 ± 0.094 ×10⁻⁶ cm/s

Question: And the P-gp substrate status (P-gp [1]; efflux ratio >2 indicates substrate)?
Answer: potential P‐gp substrate

Question: What about the P-gp inhibitor status (P-gp [2]) of the same compound?
Answer: not a significant inhibitor of P‐gp

Question: And the “Inhibition of uptake activity” value (OATP1B1)?
Answer: not inhibited

Question: What about the “Igut (intestinal concentration, Dose/250 ml)” value ([3]; 160 mg BID) of the same compound?
Answer: ~ 1360 µM

Question: And the “Fa (fraction absorbed)” value ([3]; estimated from a human mass balance study)?
Answer: 0.70

Question: And the “C max (mean steady‐state concentration)” value ([4]; 160 mg BID, dose-escalation study, ref data on file)?
Answer: 338 ng/mL

Question: And the “ka (first‐order absorption rate constant)” value ([4]; estimated from population PK)?
Answer: 0.526

Question: And the “Fg (fraction available after intestinal metabolism)” value [5]?
Answer: 0.44

Question: What about the R1 (CYP2C19 [6]; DDI basic model, hepatic) of the same compound?
Answer: 1.03

Question: What about the Ah (CYP2C19 [6]; static model term, liver inhibition) of the same compound?
Answer: 0.97

Question: And the R1 (CYP3A; midazolam)?
Answer: 1.00

Question: What about the “R1 , gut” value (CYP3A; midazolam) of the same compound?
Answer: 241

Question: And the Ag (CYP3A; midazolam)?
Answer: 0.45

Question: What about the Ah (CYP3A; midazolam) of the same compound?
Answer: 0.99

Question: And the R1 (CYP3A; testosterone)?
Answer: 1.00

Question: What about the “R1 , gut” value (CYP3A; testosterone) of the same compound?
Answer: 58

Question: What about the Ag (CYP3A; testosterone) of the same compound?
Answer: 0.77

Question: And the Ah (CYP3A; testosterone)?
Answer: 1.00

Question: And the “Percent loss of enzymatic activity” value (CYP2C8)?
Answer: 21.9%

Question: What about the “Percent loss of enzymatic activity” value (CYP2C9) of the same compound?
Answer: 5.86%

Question: And the “Percent loss of enzymatic activity” value (CYP2C19 [7])?
Answer: −4.58%

Question: And the Zanubrutinib remaining ([8]; 30-min incubation with HLMs + CYP3A inhibitor ketoconazole 1 µM)?
Answer: 98.9%

Question: And the Zanubrutinib remaining ([8]; 30-min incubation with HLMs, no inhibitor)?
Answer: 32.8%
